In patent EP3478687B1 (Daewoong Pharmaceutical Co., Ltd., priority 2016, dated 2018) one finds IC50 and inhibition data, which are given here for 19 compounds.

For test [1], the target named is T1, Recombinant purified human BTK (Homo sapiens, UniProt Q06187).
T1 construct: purchased Promega V9071
Description: BTK kinase inhibitory activity, ADP-Glo kinase assay (Promega V9071). Format: biochemical. The conditions noted are these: for IC50: ATP 10 uM, 8 ng BTK per reaction, 1 hour 30 °C, chemiluminescence; for inhibition at 0.1 µM: @100nM compound. On the procedure:
(§1) JAK3 and BTK kinase inhibitory activities were measured for the compounds prepared in the above Examples through in vitro analysis on the ADP Glow (Glo) platform.
(§2) Specifically, the inhibitory activities of JAK3 and BTK kinase were measured using a JAK3 kinase assay kit (Promega, V9441) and a BTK kinase assay kit (Promega, V9071) which were purchased from Promega. Recombinant purified human JAK3 and BTK were diluted with 1 x kinase reaction buffer (JAK3: 40 mM Tris-Cl, pH 7.5, 20 mM MgCh, 0.1 mg/mL BSA and 50 uM DTT / BTK: 40 mM Tris-Cl, pH 7.5, 20 mM MgCl2, 0.1 mg/mL BSA, 2 mM MnCl2 and 50 uM DTT) and added to a 96 well plate (JAK3: final concentration of 4 ng per reaction/BTK: final concentration of 8 ng per reaction). The compounds were treated so as to be finally a 1% DMSO aqueous solution, and a substrate cocktail containing ATP (JAK3: final concentration of 5 uM / BTK: final concentration of 10 uM) and 0.2 µg/µL of Poly(Glu4, Tyr1) peptide (JAK3 and BTK final concentration) in the total 25 µL reactants was added to a 96-well plate to initiate enzymatic reaction. After incubation (30 °C) for 1 hour, equivalent volume (25 µL per reaction) of ADP Glo was added and incubated (30 °C) for 40 minutes at room temperature. Then, a kinase detection reagent (50 µL per reaction) was added and incubated (30 °C) for 30 minutes at room temperature. The kinase activity was measured by chemiluminescence according to the instructions of ADP Glo kinase assay kit, and the inhibitory activity of the compounds according to the present invention was calculated. For the analysis of the results of each compound, Microsoft Excel was used, and IC50 values were calculated by SigmaPlot software.

Test [2] addresses T2, Recombinant purified human JAK3 (Homo sapiens, UniProt P52333).
T2 construct: purchased Promega V9441
T2 sequence (P52333 1-1124): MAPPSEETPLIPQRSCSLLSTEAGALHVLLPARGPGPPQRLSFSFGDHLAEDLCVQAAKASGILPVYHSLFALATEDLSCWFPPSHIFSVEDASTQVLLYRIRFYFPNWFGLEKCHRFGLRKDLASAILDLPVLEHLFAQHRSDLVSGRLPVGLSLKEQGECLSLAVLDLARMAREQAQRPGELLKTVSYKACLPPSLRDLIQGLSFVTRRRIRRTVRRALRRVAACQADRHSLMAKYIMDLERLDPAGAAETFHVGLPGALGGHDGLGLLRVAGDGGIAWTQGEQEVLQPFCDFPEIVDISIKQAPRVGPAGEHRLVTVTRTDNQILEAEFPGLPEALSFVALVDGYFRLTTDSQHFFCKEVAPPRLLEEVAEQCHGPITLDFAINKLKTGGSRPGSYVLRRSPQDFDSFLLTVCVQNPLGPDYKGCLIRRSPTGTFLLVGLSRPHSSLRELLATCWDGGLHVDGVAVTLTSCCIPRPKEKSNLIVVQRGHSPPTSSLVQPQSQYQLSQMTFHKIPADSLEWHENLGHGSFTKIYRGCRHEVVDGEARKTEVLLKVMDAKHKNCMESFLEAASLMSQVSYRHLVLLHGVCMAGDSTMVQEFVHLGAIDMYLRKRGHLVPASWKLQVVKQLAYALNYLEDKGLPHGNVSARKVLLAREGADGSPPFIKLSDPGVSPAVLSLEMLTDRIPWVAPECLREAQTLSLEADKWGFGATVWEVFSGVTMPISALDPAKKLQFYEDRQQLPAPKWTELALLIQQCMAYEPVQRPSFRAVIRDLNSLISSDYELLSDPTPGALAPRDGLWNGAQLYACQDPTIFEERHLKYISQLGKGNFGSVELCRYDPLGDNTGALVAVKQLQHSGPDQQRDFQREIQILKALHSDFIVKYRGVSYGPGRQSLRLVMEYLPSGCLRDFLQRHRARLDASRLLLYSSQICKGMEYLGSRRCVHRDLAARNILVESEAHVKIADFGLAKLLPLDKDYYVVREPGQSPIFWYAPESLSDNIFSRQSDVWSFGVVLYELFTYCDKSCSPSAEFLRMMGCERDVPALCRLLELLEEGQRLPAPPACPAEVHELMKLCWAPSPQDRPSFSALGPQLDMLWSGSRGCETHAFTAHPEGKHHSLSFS
Description: JAK3 kinase inhibitory activity, ADP-Glo kinase assay (Promega V9441). Format: biochemical. The conditions noted are these: for IC50: ATP 5 uM, 4 ng JAK3 per reaction, 1 hour 30 °C, chemiluminescence; for inhibition at 0.1 µM: @100nM compound. The procedure:
as §1, §2
Background: In ADP-Glo the light output rises with the ADP produced.

Setting [3] is: printed in the JAK3 IC50 column.

T1 sequence (Q06187 whole entry): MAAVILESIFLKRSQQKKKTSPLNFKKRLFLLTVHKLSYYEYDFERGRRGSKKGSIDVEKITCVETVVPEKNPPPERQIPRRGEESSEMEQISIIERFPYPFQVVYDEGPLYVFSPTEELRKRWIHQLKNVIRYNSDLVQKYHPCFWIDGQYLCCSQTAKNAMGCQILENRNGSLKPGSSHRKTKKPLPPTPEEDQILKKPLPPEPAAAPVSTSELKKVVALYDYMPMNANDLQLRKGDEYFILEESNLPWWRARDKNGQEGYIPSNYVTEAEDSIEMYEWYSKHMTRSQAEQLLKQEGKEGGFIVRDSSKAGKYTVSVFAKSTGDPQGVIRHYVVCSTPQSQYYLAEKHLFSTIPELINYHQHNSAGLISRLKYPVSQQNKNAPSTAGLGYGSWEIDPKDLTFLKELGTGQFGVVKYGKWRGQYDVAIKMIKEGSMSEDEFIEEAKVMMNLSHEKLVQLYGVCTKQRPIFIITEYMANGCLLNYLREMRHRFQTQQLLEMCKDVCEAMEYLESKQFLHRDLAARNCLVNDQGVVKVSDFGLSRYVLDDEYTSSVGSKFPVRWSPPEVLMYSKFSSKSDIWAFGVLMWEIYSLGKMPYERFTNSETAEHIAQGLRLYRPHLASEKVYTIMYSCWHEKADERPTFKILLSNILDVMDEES

As for `C=CC(=O)N1CCC[C@@H](Nc2nc(Nc3ccc(N4CCN(C)CC4)cc3)nc3[nH]ccc23)C1` [Example 1, (R)-1-(3-(2-(4-(4-methylpiperazin-1-yl)phenylamino)-7H-pyrrolo[2,3-d]pyrimidin-4-ylamino)piperidin-1-yl)prop-2-en-1-one], the IC50 (commonly the concentration that gives 50% inhibition) worked out at 10.7 nM in test [1] and 3.73 nM in test [2].
The corresponding values for `C=CC(=O)N1CCC[C@@H](Nc2nc(Nc3cccc(NC(=O)N4CCCC4)c3)nc3[nH]ccc23)C1` [Example 2, (R)-N-(3-(4-(1-acryloylpiperidin-3-ylamino)-7H-pyrrolo[2,3-d]pyrimidin-2-ylamino)phenyl)pyrrolidine-1-carboxamide] are 27 nM and 8.9 nM.
For `C=CC(=O)N1CCC[C@H](Nc2nc(Nc3cccc(NC(=O)N4CCCC4)c3)nc3[nH]ccc23)C1` [Example 3, (S)-N-(3-(4-(1-acryloylpiperidin-3-ylamino)-7H-pyrrolo[2,3-d]pyrimidin-2-ylamino)phenyl)pyrrolidine-1-carboxamide], the inhibition (commonly how much of the control response was suppressed) at 0.1 µM is 30% in test [1] and 28.2% in test [2] (setting [3]).
As for `C=CC(=O)N1CCC[C@@H](Nc2nc(Nc3ccc(N4CCOCC4)cc3)nc3[nH]ccc23)C1` [Example 4, (R)-1-(3-(2-(4-morpholinophenylamino)-7H-pyrrolo[2,3-d]pyrimidin-4-ylamino)piperidin-1-yl)prop-2-en-1-one], the IC50 came out at 26.7 nM in test [1] and 6.9 nM in test [2].
The corresponding values for `C=CC(=O)N1CCC[C@@H](Nc2nc(Nc3ccc(N4CCCC4)cc3)nc3[nH]ccc23)C1` [Example 5, (R)-1-(3-(2-(4-(pyrrolidin-1-yl)phenylamino)-7H-pyrrolo[2,3-d]pyrimidin-4-ylamino)piperidin-1-yl)prop-2-en-1-one] are 76.7 nM and 24.6 nM.
The corresponding values for `C=CC(=O)N1CCC[C@@H](Nc2nc(Nc3ccc(-n4nc(C)cc4C)cc3)nc3[nH]ccc23)C1` [Example 6, (R)-1-(3-(2-(4-(3,5-dimethyl-1H-pyrazol-1-yl)phenylamino)-7H-pyrrolo [2,3-d]pyrimidin-4-ylamino)piperidin-1-yl)prop-2-en-1-one] are 9.6 nM and 4.6 nM.
On the same counts, the results for `C=CC(=O)N1CCC[C@@H](Nc2nc(Nc3ccc(OCCN(CC)CC)cc3)nc3[nH]ccc23)C1` [Example 7, (R)-1-(3-(2-(4-(2-(diethylamino)ethoxy)phenylamino)-7H-pyrrolo[2,3-d]pyrimidin-4-ylamino)piperidin-1-yl)prop-2-en-1-one] are 14 nM and 5 nM.
Take `C=CC(=O)N1CCC[C@@H](Nc2nc(Nc3ccc(C(=O)N4CCOCC4)cc3)nc3[nH]ccc23)C1` [Example 8, (R)-1-(3-(2-(4-(morpholine-4-carbonyl)phenylamino)-7H-pyrrolo[2,3-d]pyrimidin-4-ylamino)piperidin-1-yl)prop-2-en-1-one]: the IC50 was found to be 14.3 nM in test [1] and 1.3 nM in test [2].
As to `C=CC(=O)N1CCC[C@@H](Nc2nc(Nc3ccc(N(C)C)cc3)nc3[nH]ccc23)C1` [Example 9, (R)-1-(3-(2-(4-(dimethylamino)phenylamino)-7H-pyrrolo[2,3-d]pyrimidin-4-ylamino)piperidin-1-yl)prop-2-en-1-one], the figures for the concentration for half-maximal inhibition (IC50) in test [1] and in test [2] were 20.5 nM and 3.9 nM, respectively.
With `C=CC(=O)N1CCC[C@@H](Nc2nc(Nc3cccc(-n4nc(C)cc4C)c3)nc3[nH]ccc23)C1` [Example 10, (R)-1-(3-(2-(3-(3,5-dimethyl-1H-pyrazol-1-yl)phenylamino)-7H-pyrrolo [2,3-d]pyrimidin-4-ylamino)piperidin-1-yl)prop-2-en-1-one], the figures for the inhibition at 0.1 µM in test [1] and in test [2] (setting [3]) were 23.7% and 32.8%, respectively.
On the same counts, the results for `C=CC(=O)N1CCC[C@H](Nc2nc(Nc3ccc(N4CCN(C)CC4)cc3)nc3[nH]ccc23)C1` [Example 11, (S)-1-(3-(2-(4-(4-methylpiperazin-1-yl)phenylamino)-7H-pyrrolo[2,3-d]pyrimidin-4-ylamino)piperidin-1-yl)prop-2-en-1-one] are 26.5% and 36%.
With `C=CC(=O)N1CCC[C@@H](Nc2nc(Nc3ccc4ncsc4c3)nc3[nH]ccc23)C1` [Example 12, (R)-1-(3-(2-(benzo[d]thiazol-6-ylamino)-7H-pyrrolo[2,3-d]pyrimidin-4-ylamino)piperidin-1-yl)prop-2-en-1-one], the 50% inhibitory concentration (IC50) turned out to be 10.6 nM in test [1] and 1.3 nM in test [2].
On to `C=CC(=O)N1CCC[C@@H](Nc2nc(Nc3ccc(Oc4ccccc4)cc3)nc3[nH]ccc23)C1` [Example 13, (R)-1-(3-(2-(4-phenoxyphenylamino)-7H-pyrrolo[2,3-d]pyrimidin-4-ylamino)piperidin-1-yl)prop-2-en-1-one], for which the inhibition at 1 µM in test [1] (@1uM compound) was 1%; in test [2] (@1uM compound, printed in the JAK3 IC50 column), 0.4%.
As for `C=CC(=O)N1CCC[C@@H](Nc2nc(Nc3cnn(C)c3)nc3[nH]ccc23)C1` [Example 14, (R)-1-(3-(2-(1-methyl-1H-pyrazol-4-ylamino)-7H-pyrrolo[2,3-d]pyrimidin-4-ylamino)piperidin-1-yl)prop-2-en-1-one], the values for the IC50 in test [1] and in test [2] were 19.2 nM and 1.1 nM, respectively.
The corresponding values for `C=CC(=O)N1CCC[C@@H](Nc2nc(Nc3cnn(CC(F)F)c3)nc3[nH]ccc23)C1` [Example 15, (R)-1-(3-(2-(1-(2,2-difluoroethyl)-1H-pyrazol-4-ylamino)-7H-pyrrolo[2,3-d]pyrimidin-4-ylamino)piperidin-1-yl)prop-2-en-1-one] are 7.2 nM and 0.3 nM.
The corresponding values for `C=CC(=O)N1CCC[C@@H](Nc2nc(Nc3cnn(C(F)F)c3)nc3[nH]ccc23)C1` [Example 16, (R)-1-(3-(2-(1-(difluoromethyl)-1H-pyrazol-4-ylamino)-7H-pyrrolo[2,3-d]pyrimidin-4-ylamino)piperidin-1-yl)prop-2-en-1-one] are 10.1 nM and 0.4 nM.
The corresponding values for `C=CC(=O)N1CCC[C@@H](Nc2nc(Nc3cnn(CCOC)c3)nc3[nH]ccc23)C1` [Example 17, (R)-1-(3-(2-(1-(2-methoayethyl)-1H-pyrazol-4-ylamino)-7H-pyrrolo[2,3-d]pyrimidin-4-ylamino)piperidin-1-yl)prop-2-en-1-one] are 11.8 nM and 0.6 nM.
Regarding `C=CC(=O)N1CCC[C@@H](Nc2nc(Nc3cnn(CCN4CCOCC4)c3)nc3[nH]ccc23)C1` [Example 18, (R)-1-(3-(2-(1-(2-morpholinoethyl)-1H-pyrazol-4-ylamino)-7H-pyrrolo[2,3-d]pyrimidin-4-ylamino)piperidin-1-yl)prop-2-en-1-one], the half-maximal inhibitory concentration (IC50) in test [1] came to 8.8 nM; in test [2] it was 0.3 nM.
Take `C=CC(=O)N1CCC[C@@H](Nc2nc(Nc3cnn(CCN(CC)CC)c3)nc3[nH]ccc23)C1` [Example 19, (R)-1-(3-(2-(1-(2-(diethylamino)ethyl)-1H-pyrazol-4-ylamino)-7H-pyrrolo[2,3-d]pyrimidin-4-ylamino)piperidin-1-yl)prop-2-en-1-one]: the IC50 in test [1] is 8.7 nM; in test [2], 0.5 nM.
